Ends that are not written are not given here.
Key:
C2C12 cells = assay: MTT assay of cell proliferation in C2C12 cells; type: cell-based; conditions: peptide 10 μg/ml, 72 hours, serum-free, FIGS. 1a and 1b
Procedure: In order to analyze the BMP2-like action of the sequence peptides synthesized in synthesis example 1, MTT assay was conducted using C2C12 cells, which are a myoblast cell line, to investigate the proliferation promoting effect.
The C2C12 cells were cultured in Dulbecco's modified Eagle's medium (DMEM, Gibco) supplemented with 10% fetal bovine serum (FBS, Sigma) using a 500 ml-flask for tissue culture. The cultured cell lines were carefully detached from the bottom of the culture container using a 1% trypsin solution, followed by centrifugation, thereby obtaining only cell precipitates. The cell precipitates were re-suspended in DMEM culture medium supplemented without FBS, and then added to a 96-well plate for tissue culture at 1×10^3 cells per each well, followed by culture under conditions of 37° C. and 5% CO2 for 24 hours. After 24 hours, the medium was changed with the same culture liquid completely excluding serum, and then the blank sample and each of the synthetic peptide were dissolved sterile in distilled water, and the mixture was cultured at a concentration of 10 μg/ml for 72 hours under the same conditions. The MTT sample was added to the culture-completed well, and after 4 hour, the formed formazan was dissolved in DMSO, and then the absorbance was measured at 560 nm to determine cell proliferation.

MC3T3-E1 cells [1] = assay: Alkaline phosphatase (ALP) staining of MC3T3-E1 cells (osteoblast differentiation); type: cell-based; conditions: MC3T3-E1, peptide 10 ug/ml and 50 ug/ml, 13 days; FIGS. 2a and 2b
Procedure: In order to analyze the BMP2-like action of the sequence peptides synthesized in synthesis example 1, the osteoblast differentiation promoting effect was investigated through alkaline phosphatase (ALP) staining of MC3T3-E1 cells, which are a pre-osteoblast cell line. The MC3T3-E1 cells were placed in a 24-well plate to 3×10^4 cells, and then cultured for 24 hours under conditions of 37° C. and 5% CO2. After 24 hours, the alpha-MEM medium containing 10% FBS and 50 ug/ml ascorbic acid+100 mM b-glycerophosphate was treated with the synthetic peptides at concentrations of 10 ug/ml and 50 ug/ml, and then the culture was conducted for 13 days while the medium was exchanged every three days. The culture-completed plate well was washed two times with PBS, and then the cells were immobilized with an immobilization buffer, in which acetone, 37% formaldehyde, and citric acid solution were mixed, for 30 seconds. The following staining was carried out using the leukocyte alkaline phosphatase staining kit (SIGMA).
The cells were treated for 2 minutes with an FBB-alkaline solution and a sodium nitrite solution mixed at 1:1, and then treated with a buffer composed of distilled water and naphthol AS-BI alkaline solution, followed by color development in an incubator at 37° C. for 1 hour.

MC3T3-E1 cells [2] = assay: RT-PCR of osteogenic differentiation-related genes (BSP, COL1A1) in MC3T3-E1 cells; type: cell-based; conditions: MC3T3-E1, peptide 10 ug/ml and 50 ug/ml, 2 days; FIGS. 3a and 3b
Procedure: In order to investigate the mRNA expression levels of osteogenic differentiation-related genes, bone sialoprotein (BSP) and collagen type I alpha 1 (COL1A1) by the sequence peptides synthesized in synthesis example 1, MC3T3-E1 cells were placed in a 6-well plate to 2×10^5 cells, and then cultured for 24 hours under conditions of 37° C. and 5% CO2. After 24 hours, the medium containing FBS 10% was treated with the respective peptides at 10 ug/ml and 50 ug/ml, and BMP2 used at a positive control at 100 ng/ml. After 2 days, the washing was conducted with PBS, and then RNA was isolated using Easy blue (Intron). cDNA was synthesized using 1 ug of RNA and RT premixture (Intron), and PCR was conducted using PCR premixture (Bioneer), and then the resulting product was loaded on agarose gel to investigate the mRNA expression degree of each gene.

MC3T3-E1 cells [3] = assay: Western blotting of pSmad1/5/8 in MC3T3-E1 cells; type: cell-based; conditions: MC3T3-E1, peptide 10 ug/ml, 15 and 30 minutes, FIGS. 4a and 4b
Procedure: In order to investigate whether pSmad1/5/8, which is a signal involved in the promotion of osteogenic differentiation, was activated by the present peptides, MC3T3-E1 cells were placed in a 6-well plate at 2×10^5 cells, and then cultured for 24 hours under the conditions of 37° C. and 5% CO2. After 24 hours, the medium was exchanged with a medium without serum, followed by culture for 24 hours. Then, the resulting product was treated with the respective peptides at 10 ug/ml, and BMP2 used at a positive control at 50 ng/ml. After 15 minutes and 30 minutes, the washing was conducted with PBS, and then a lysis buffer was added to obtain proteins through lysis, followed by western blotting.

Balb/c mouse = assay: Collagen sponge transplant in Balb/c mouse, H&E staining of osteocytes permeation and differentiation; type: in vivo; conditions: collagen sponge with 100 ug peptide transplanted into the back, 2 weeks, FIG. 5
Procedure: A collagen sponge with a size of 0.5 mm×0.5 mm was wetted with 100 ug of the peptide of SEQ ID NO: 1, transplanted into the back of the Balb/c mouse, and then left for 2 weeks. Thereafter, the collagen sponge was extracted, and then made into a paraffin block, and then the degree of osteocytes permeation and differentiation in the collagen sponge were measured through H&E staining (FIG. 5).

[4] = tested on: human periodontal ligament fibroblasts; assay: SRB assay of human periodontal ligament fibroblast growth; type: cell-based; conditions: peptide 0.05-10 ug/ml, 72 hours, serum-free; FIGS. 6a and 6b
Procedure: In order to investigate the effects of the peptides of SEQ ID NO: 1 and SEQ ID NO: 2 on the periodontium, the human periodontal ligament fibroblast promoting effects were analyzed. The periodontal ligament fibroblasts were placed in a 48-well plate to 1×10^3 cells, and then cultured for 24 hours under conditions of 37° C. and 5% CO2. After 24 hours, the exchange with the medium not containing serum was conducted, followed by culture for 6 hours. Thereafter, the resulting product was treated with the peptides at concentrations of 0.05-10 ug/ml and BMP-2 and IGF-1 used as positive controls at a concentration of 0.2 ug/ml, followed by culture for 72 hours. After the completion of the culture, the culture supernatant was removed and the cells were immobilized using ethanol. After the cell immobilization was ended, the cells were washed three times with phosphate buffer saline (PBS). After the wash solution was removed, the cells were treated with colorimetric SRB solution, and sufficiently washed with 1% acetic acid. Then, the cells were observed using a microscope to observe the conditions of living cells. The absorbance for the solution decolorized with 20 mM tris was read at UV light of 560 nm, thereby measuring the survival conditions of cells.

[5] = tested on: human periodontal ligament fibroblasts; assay: Western blotting of p-PI3K and p-Akt in periodontal ligament fibroblasts; type: cell-based; conditions: peptide 10 ug/ml, 5-15 minutes, FIGS. 7a and 7b
Procedure: In order to investigate the human periodontal ligament fibroblast growth promoting effects by the peptides of SEQ ID NO: 1 and SEQ ID NO: 2, the phosphorylation degrees of related signaling molecules were analyzed using western blotting. The periodontal ligament fibroblasts were placed in a 6-well plate to 5×10^5 cells, and then cultured for 24 hours under conditions of 37° C. and 5% CO2. Thereafter, the resulting product was treated with the peptides at a concentration of 10 ug/ml and bFGF used as a positive control at a concentration of 0.2 ug/ml. Then, the cells were collected by culture times of 5-15 minutes, and the total proteins were isolated, and then western blotting was conducted with respect to p-PI3K and p-Akt.

[6] = tested on: periodontal ligament fibroblasts; assay: RT-PCR of COL1A1 and DSPP mRNA in periodontal ligament fibroblasts; type: cell-based, human; conditions: peptide 1 and 10 ug/ml, 72 hours, FIGS. 8a and 8b
Procedure: In order to investigate the periodontal ligament fibroblast activity promoting effects by the peptides of SEQ ID NO: 1 and SEQ ID NO: 2, the mRNA expression of related genes was analyzed using RT-PCR. The periodontal ligament fibroblasts were placed in a 24-well plate to 1.5×10^4 cells, and then cultured for 24 hours under conditions of 37° C. and 5% CO2. After 24 hours, the exchange with the medium not containing serum was conducted, followed by culture for 24 hours. Thereafter, the resulting product was treated with the peptides at concentrations of 1 and 10 ug/ml and BMP-2 and IGF-1 used as positive controls at a concentration of 0.2 ug/ml, followed by culture for 72 hours. After the completion of the culture, the washing was conducted with PBS, and then RNA was isolated using Easy blue (Intron). cDNA was synthesized using 1 ug of RNA and RT premixture (Intron), and PCR was conducted using PCR premixture (Bioneer), and then the resulting product was loaded on agarose gel to investigate the mRNA level of each marker.

## RSLNLRDSQKS [SEQ ID NO: 1]
C2C12 cells
  growth of osteoblasts (cell proliferation, MTT, absorbance at 560 nm): significantly promoted the growth of osteoblasts
MC3T3-E1 cells [1]
  ALP expression (ALP staining): increase in the ALP expression
MC3T3-E1 cells [2]
  mRNA expression levels of osteogenic differentiation genes (BSP, COL1A1): increases in the mRNA expression levels
MC3T3-E1 cells [3]
  phosphorylation of Smad1/5/8: promotion of the phosphorylation of Smad1/5/8
Balb/c mouse
  bone formation promoting effect (osteocytes permeation, proliferation and differentiation in collagen sponge, H&E): bone formation promoting effect
[4]
  periodontal ligament fibroblast cell growth (SRB, absorbance 560 nm): cell growth increase in a dose-dependent manner
[5]
  phosphorylation level of Akt: increases in the phosphorylation levels
  phosphorylation level of PI3K: increases in the phosphorylation levels
[6]
  mRNA expression level of alpha-1 type I collagen (COL1A1): increases in the mRNA expression levels
  mRNA expression level of dentin sialophosphoprotein (DSPP): increases in the mRNA expression levels

## FDMGAYKSSK [SEQ ID NO: 2]
C2C12 cells
  growth of osteoblasts (cell proliferation, MTT, absorbance at 560 nm): significantly promoted the growth of osteoblasts
MC3T3-E1 cells [1]
  ALP expression (ALP staining): increase in the ALP expression
MC3T3-E1 cells [2]
  mRNA expression levels of osteogenic differentiation genes (BSP, COL1A1): increases in the mRNA expression levels
MC3T3-E1 cells [3]
  phosphorylation of Smad1/5/8: promotion of the phosphorylation of Smad1/5/8
[4]
  periodontal ligament fibroblast cell growth (SRB, absorbance 560 nm): cell growth increase in a dose-dependent manner
[5]
  phosphorylation level of Akt: increases in the phosphorylation levels
  phosphorylation level of PI3K: increases in the phosphorylation levels
[6]
  mRNA expression level of alpha-1 type I collagen (COL1A1): increases in the mRNA expression levels
  mRNA expression level of dentin sialophosphoprotein (DSPP): increases in the mRNA expression levels

From patent US10000534B2, “Peptide having osteoblast proliferation activity and periodontal ligament fibroblast proliferation activity, and use of same” (CAREGEN CO., LTD., priority 2014, dated 2018)
